Test results from patent publication US8912338B2, “Pesticidal compositions” (Dow AgroSciences LLC, priority 2010, dated 2014).

Experiments:
[1] = tested on: Cotton Aphid (Aphis gossypii); test: Insecticidal test for cotton aphid in a foliar spray assay; assay type: in vivo; settings: 72 h, 200 ppm foliar spray on squash or cotton seedlings, live aphids counted after three days, Abbott's corrected % control, read-out: APHIGO % Ctrl @ 200 ppm
Method: Squash or cotton seedlings with fully expanded cotyledon leaves were trimmed to one cotyledon per plant and infested with wingless adult and nymph stage cotton aphid (APHIGO) one day prior to chemical application. Each plant was examined before chemical application to ensure uniform infestation (ca. 30-70 aphids per plant). Compounds (2 mg) were dissolved in 2 mL of acetone/methanol (1:1) solvent, forming stock solutions of 1000 ppm. The stock solutions were diluted 5× with 0.025% Tween 20 in H2O to obtain a solution at 200 ppm. A hand-held Devilbiss aspirator type sprayer was used to apply the spray solutions until runoff to both sides of the squash cotyledon leaves. Four plants (4 replications) were used for each concentration of each compound. Reference plants (solvent check) were sprayed with the diluent only. Treated plants were held in a holding room for three days at approximately 25° C. and 40% RH before the number of live cotton aphids on each plant was recorded. Insecticidal activity data presented in Table 3 were generated by using Abbott's correction formula: Corrected%Control=100*(X−Y)/X • where X=No. of live aphids on solvent check plants • Y=No. of live aphids on treated plants

[2] = tested on: Green Peach Aphid (Myzus persicae); test: Insecticidal test for green peach aphid in foliar spray assay; assay type: in vivo; settings: 72 h, 200 ppm foliar spray on cabbage seedlings, live aphids counted after three days, Abbott's corrected % control, read-out: MYZUPE % Ctrl @ 200 ppm
Method: Certain molecules disclosed in this document were tested against MYZUPE using procedures described in the following example. In the reporting of the results, the “MYZUPE, APHIGO and BEMITA Rating Table” was used (See Table Section).
Cabbage seedlings grown in 3-inch pots, with 2-3 small (3-5 cm) true leaves, were used as test substrate. The seedlings were infested with 20-50 green peach aphids (wingless adult and nymph stage) one day prior to chemical application. Four pots with individual seedlings were used for each treatment. Compounds (2 mg) were dissolved in 2 mL of acetone/methanol (1:1) solvent, forming stock solutions of 1000 ppm. The stock solutions were diluted 5× with 0.025% Tween 20 in H2O to obtain the test solution at 200 ppm. A hand-held Devilbiss sprayer was used for spraying a solution to both sides of cabbage leaves until runoff. Reference plants (solvent check) were sprayed with the diluent only. Treated plants were held in a holding room for three days at approximately 25° C. and 40% relative humidity (RH) prior to grading. Evaluation was conducted by counting the number of live aphids per plant under a microscope. Insecticidal activity data presented in Table 3 were generated by using Abbott's correction formula: Corrected%Control=100*(X−Y)/X • where X=No. of live aphids on solvent check plants • Y=No. of live aphids on treated plants

[3] = tested on: Sweetpotato Whitefly (Bemisia tabaci); test: Insecticidal test for sweetpotato whitefly in foliar spray assay; assay type: in vivo; settings: 200 ppm foliar spray on cotton plants infested with eggs, live nymphs counted after 8-9 days, Abbott's corrected % control, read-out: BEMITA % Ctrl @ 200 ppm
Method: Cotton plants were used as test substrate and were grown in 3-inch pots and pruned until only 1 small (3-5 cm) true leaf remained. The plants were then placed in a room with whitefly ([…]) adults and allowed to be infested with eggs. After a 2-3 day egg-laying period, plants were taken from the adult whitefly room and the adults were removed from the leaves using compressed air delivered through a hand-held Devilbiss sprayer (23 psi). Plants infested with eggs (100-300 eggs per plant) were placed in a controlled-environment room for 5-6 days at 82° F. and 50% RH until approximately 50% egg hatch. Four cotton plants (4 replicates) were used for each treatment. Compounds (2 mg) were dissolved in 1 mL of acetone solvent, forming stock solutions of 2000 ppm. The stock solutions were diluted 10× with 0.025% Tween 20 in H2O to obtain the test solution of 200 ppm. A hand-held Devilbiss sprayer was used for spraying a solution to both sides of cotton leaf until runoff. Reference plants (solvent check) were sprayed with the diluent only. Treated plants were held in a holding room for 8-9 days at approximately 82° F. and 50% RH prior to grading. Evaluation was conducted by counting the number of live nymphs per plant under a microscope. Insecticidal activity data presented in Table 3 were generated by using Abbott's correction formula: Corrected%Control=100*(X-Y)/X • where X=No. of live nymphs on solvent check plants • Y=No. of live nymphs on treated plants […]

`CSCCC(=O)N(C)c1nnc(-c2cccnc2)s1` [Compound 1] showed an inhibition at 200 ppm [1] of 80 to 100%, an inhibition at 200 ppm [2] of 80 to 100% and an inhibition at 200 ppm [3] of 0 to 80%. For the same compound, the melting point was 99 to 101 °C.

`CCSCCC(=O)N(C)c1nnc(-c2cccnc2)s1` [Compound 2] showed an inhibition at 200 ppm [1] of 80 to 100%, an inhibition at 200 ppm [2] of 80 to 100% and an inhibition at 200 ppm [3] of 0 to 80%. The melting point was 70 to 72 °C.

`COCCC(=O)N(C)c1nnc(-c2cccnc2)s1` [Compound 3] showed an inhibition at 200 ppm [1] of 80 to 100%, an inhibition at 200 ppm [2] of 80 to 100% and an inhibition at 200 ppm [3] of 0 to 80%. The melting point was 92 to 97.5 °C.

Compound `CC(C)SCCC(=O)N(C)c1nnc(-c2cccnc2)s1` [Compound 4] has an inhibition at 200 ppm [1] of 80 to 100%, an inhibition at 200 ppm [2] of 80 to 100% and an inhibition at 200 ppm [3] of 0 to 80%. For the same compound, the melting point was 100 to 105 °C.

`CN(C(=O)CCSCCc1ccccc1)c1nnc(-c2cccnc2)s1` [Compound 5] gave an inhibition at 200 ppm [1] of 0 to 80%, an inhibition at 200 ppm [2] of 0 to 80% and an inhibition at 200 ppm [3] of 0 to 80%. The melting point was 105 to 108 °C.

Work on `CSCCCC(=O)N(C)c1nnc(-c2cccnc2)s1` [Compound 6] yielded an inhibition at 200 ppm [1] of 80 to 100%, an inhibition at 200 ppm [2] of 80 to 100% and an inhibition at 200 ppm [3] of 0 to 80%. The melting point was 93 to 95 °C.

`CSCCC(=O)Nc1nnc(-c2cccnc2)s1` [Compound 7] showed an inhibition at 200 ppm [1] of 0 to 80%, an inhibition at 200 ppm [2] of 0 to 80% and an inhibition at 200 ppm [3] of 0 to 80%. It also gave a melting point of 211 to 212 °C.

For `CCSCC(=O)N(C)c1nnc(-c2cccnc2)s1` [Compound 8], the inhibition at 200 ppm [1] was 80 to 100%, the inhibition at 200 ppm [2] was 80 to 100% and the inhibition at 200 ppm [3] was < 0%. The melting point was 87 to 92 °C.

With `CCN(C(=O)CCSC)c1nnc(-c2cccnc2)s1` [Compound 9] the inhibition at 200 ppm [1] was 80 to 100%, the inhibition at 200 ppm [2] was 80 to 100% and the inhibition at 200 ppm [3] was 0 to 80%. The melting point was 116 to 120 °C.

Compound `CN(C(=O)CCSCc1ccccc1)c1nnc(-c2cccnc2)s1` [Compound 11] has an inhibition at 200 ppm [1] of 0 to 80%, an inhibition at 200 ppm [2] of 0 to 80% and an inhibition at 200 ppm [3] of 0 to 80%. For the same compound, the melting point was 116 to 118 °C.

`CCOC(=O)CCC(=O)N(C)c1nnc(-c2cccnc2)s1` [Compound 12] gave an inhibition at 200 ppm [1] of 80 to 100%, an inhibition at 200 ppm [2] of 0 to 80% and an inhibition at 200 ppm [3] of 0 to 80%. The melting point was 137 to 139 °C.

`CN(C(=O)CC[S+](C)[O-])c1nnc(-c2cccnc2)s1` (stereo not shown) [Compound 18, N-methyl-3-(methylsulfinyl)-N-(5-(pyridin-3-yl)-1,3,4-thiadiazol-2-yl)propanamide] showed an inhibition at 200 ppm [1] of 80 to 100%, an inhibition at 200 ppm [2] of 80 to 100% and an inhibition at 200 ppm [3] of 0 to 80%. For the same compound, the melting point was 138 to 140 °C.

`COCCCC(=O)N(C)c1nnc(-c2cccnc2)s1` [Compound 19] showed an inhibition at 200 ppm [1] of 80 to 100%, an inhibition at 200 ppm [2] of 0 to 80% and an inhibition at 200 ppm [3] of 0 to 80%. For the same compound, the melting point was 92 to 95 °C.

With `CN(C(=O)CCS(C)(=O)=O)c1nnc(-c2cccnc2)s1` [Compound 20, N-methyl-3-(methylsulfonyl)-N-(5-(pyridin-3-yl)-1,3,4-thiadiazol-2-yl)propanamide] the inhibition at 200 ppm [1] was 80 to 100%, the inhibition at 200 ppm [2] was 80 to 100% and the inhibition at 200 ppm [3] was 0 to 80%. The melting point was 199 to 201 °C.

With `CSCC(C)(C)C(=O)N(C)c1nnc(-c2cccnc2)s1` [Compound 24, N-2,2-trimethyl-3-(methylthio)-N-(5-(pyridin-3-yl)-1,3,4-thiadiazol-2-yl)propanamide] the inhibition at 200 ppm [1] was 80 to 100%, the inhibition at 200 ppm [2] was 80 to 100% and the inhibition at 200 ppm [3] was 0 to 80%. The melting point was 89 to 91 °C.

Work on `CSCC(=O)N(C)c1nnc(-c2cccnc2)s1` [Compound 29] yielded an inhibition at 200 ppm [1] of 80 to 100%, an inhibition at 200 ppm [2] of 80 to 100% and an inhibition at 200 ppm [3] of 0 to 80%. It also gave a melting point of 135 to 139 °C.

Compound `CC(CS(C)(=O)=O)C(=O)N(C)c1nnc(-c2cccnc2)s1` (stereo not shown) [Compound 37] has an inhibition at 200 ppm [1] of 80 to 100%, an inhibition at 200 ppm [2] of 80 to 100% and an inhibition at 200 ppm [3] of 0 to 80%.

Work on `CN(C(=O)C(C)(C)CS(C)(=O)=NC#N)c1nnc(-c2cccnc2)s1` (stereo not shown) [Compound 42, N-2,2-trimethyl-3-(methyl-N-cyano-sulfoximinyl)-N-(5-(pyridin-3-yl)-1,3,4-thiadiazol-2-yl)propanamide] yielded an inhibition at 200 ppm [1] of 0 to 80%, an inhibition at 200 ppm [2] of 80 to 100% and an inhibition at 200 ppm [3] of 0 to 80%.

Compound `CN(C(=O)C1(CS(C)(=O)=O)CC1)c1nnc(-c2cccnc2)s1` [Compound 46] has an inhibition at 200 ppm [1] of 80 to 100%, an inhibition at 200 ppm [3] of 0 to 80% and a melting point of 208 to 212 °C.

`CCC(CC)(CSC)C(=O)N(C)c1nnc(-c2cccnc2)s1` [Compound 53] gave an inhibition at 200 ppm [1] of 80 to 100%, an inhibition at 200 ppm [2] of 0 to 80% and an inhibition at 200 ppm [3] of 0 to 80%.

For `CSCCOC(=O)N(C)c1nnc(-c2cncc(F)c2)s1` [Compound 78, [5-(5-fluoropyridin-3-yl)-[1,3,4]thiadiazol-2-yl]-methylcarbamic acid 2-methylsulfanyl-ethyl ester], the inhibition at 200 ppm [2] was 80 to 100%, the inhibition at 200 ppm [3] was 80 to 100% and the melting point was 104 to 106 °C.

With `CSCCNC(=O)N(C)c1nnc(-c2cncc(F)c2)s1` [Compound 79, 1-[5-(5-fluoro-pyridin-3-yl)-[1,3,4]thiadiazol-2-yl]-1-methyl-3-(2-methylsulfanyl-ethyl)-urea] the inhibition at 200 ppm [2] was 80 to 100%, the inhibition at 200 ppm [3] was 0 to 80% and the melting point was 100 to 104 °C.

Work on `CCOC(=S)N(C)c1nnc(-c2cncc(F)c2)s1` [Compound 80, [5-(5-fluoro-pyridin-3-yl)-[1,3,4]thiadiazol-2-yl]-methyl-thiocarbamic acid ethyl ester] yielded an inhibition at 200 ppm [2] of 80 to 100%, an inhibition at 200 ppm [3] of 0 to 80% and a melting point of 137 to 140 °C.

With `CN(C(=O)CSCc1ccccc1)c1nnc(-c2cncc(F)c2)s1` [Compound 84] the inhibition at 200 ppm [2] was 0 to 80%, the inhibition at 200 ppm [3] was 0 to 80% and the melting point was 145 to 147 °C.

Compound `CSCCOC(=S)N(C)c1nnc(-c2cncc(F)c2)s1` [Compound 85, [5-(5-fluoro-pyridin-3-yl)-[1,3,4]thiadiazol-2-yl]-methyl-thiocarbamic acid 2-methylsulfanyl-ethyl ester] has an inhibition at 200 ppm [2] of 0 to 80%, an inhibition at 200 ppm [3] of 0 to 80% and a melting point of 150 to 152 °C.

With `CSCC(C)(C#N)C(=O)N(C)c1nnc(-c2cncc(F)c2)s1` (stereo not shown) [Compound 88] the inhibition at 200 ppm [2] was 80 to 100%, the inhibition at 200 ppm [3] was 0 to 80% and the melting point was 109 to 111 °C.

With `CSCC(C)(CN)C(=O)N(C)c1nnc(-c2cncc(F)c2)s1` (stereo not shown) [Compound 89, 2-(aminomethyl)-N-[5-(5-fluoro-3-pyridyl)-1,3,4-thiadiazol-2-yl]-N,2-dimethyl-3-methylsulfanyl-propanamide] the inhibition at 200 ppm [2] was 0 to 80%, the inhibition at 200 ppm [3] was 0 to 80% and the melting point was 154 to 157 °C.

`CSCC(C)(C)C(=O)OCC(C)(C)C(=O)N(C)c1nnc(-c2cncc(F)c2)s1` [Compound 91] gave an inhibition at 200 ppm [2] of 80 to 100%, an inhibition at 200 ppm [3] of 80 to 100% and a melting point of 90 to 93 °C.

Compound `CSCC(C)C(=O)Nc1nnc(-c2cccnc2)s1` (stereo not shown) [Compound 92] has an inhibition at 200 ppm [2] of 0 to 80%, an inhibition at 200 ppm [3] of 0 to 80% and a melting point of 176 °C.

For `C=CCSCC(C)C(=O)N(C)c1nnc(-c2cccnc2)s1` (stereo not shown) [Compound 94], the inhibition at 200 ppm [2] was 80 to 100%, the inhibition at 200 ppm [3] was 80 to 100% and the melting point was 43 to 46 °C.

Compound `COCCNC(=S)N(C)c1nnc(-c2cccnc2)s1` [Compound 95] has an inhibition at 200 ppm [2] of 80 to 100%, an inhibition at 200 ppm [3] of 0 to 80% and a melting point of 118 to 121 °C.
